From patent US10941180B2, “Peptoid compound, and derivative, salt, preparation method and use thereof” (BOE Technology Group Co., Ltd., priority 2018, dated 2021)
Read-outs that look alike come from different tables or passages of the source. Starred links: 1 amine or outer side, 2 acyl side, 3 side chain; linkers in the order of their positions; H or OH if unused. Non-standard residues stand in square brackets, D forms with d. Residues, ends and D or L forms follow the SMILES beside them. X2 = O=C(CN(CCc1ccc(-c2ccccc2)cc1)[*:1])[*:2]; Gly(N-piperonyl) = O=C(O)CNCc1ccc2c(c1)OCO2; X1 = CC(c1ccccc1)N(CC(=O)[*:2])[*:1]; Gly(N-2-aminoethyl) = NCCNCC(=O)O; Nleu = CC(C)CNCC(=O)O; Nlys = NCCCCNCC(=O)O

Experiments:
[1] = target: T1, Her2 protein (Homo sapiens, UniProt P04626); test: Binding ability to Her2 protein by surface plasmon resonance imaging (SPRi)
T1 construct: purchased Sigma (USA)
T1 sequence (P04626 23-1255): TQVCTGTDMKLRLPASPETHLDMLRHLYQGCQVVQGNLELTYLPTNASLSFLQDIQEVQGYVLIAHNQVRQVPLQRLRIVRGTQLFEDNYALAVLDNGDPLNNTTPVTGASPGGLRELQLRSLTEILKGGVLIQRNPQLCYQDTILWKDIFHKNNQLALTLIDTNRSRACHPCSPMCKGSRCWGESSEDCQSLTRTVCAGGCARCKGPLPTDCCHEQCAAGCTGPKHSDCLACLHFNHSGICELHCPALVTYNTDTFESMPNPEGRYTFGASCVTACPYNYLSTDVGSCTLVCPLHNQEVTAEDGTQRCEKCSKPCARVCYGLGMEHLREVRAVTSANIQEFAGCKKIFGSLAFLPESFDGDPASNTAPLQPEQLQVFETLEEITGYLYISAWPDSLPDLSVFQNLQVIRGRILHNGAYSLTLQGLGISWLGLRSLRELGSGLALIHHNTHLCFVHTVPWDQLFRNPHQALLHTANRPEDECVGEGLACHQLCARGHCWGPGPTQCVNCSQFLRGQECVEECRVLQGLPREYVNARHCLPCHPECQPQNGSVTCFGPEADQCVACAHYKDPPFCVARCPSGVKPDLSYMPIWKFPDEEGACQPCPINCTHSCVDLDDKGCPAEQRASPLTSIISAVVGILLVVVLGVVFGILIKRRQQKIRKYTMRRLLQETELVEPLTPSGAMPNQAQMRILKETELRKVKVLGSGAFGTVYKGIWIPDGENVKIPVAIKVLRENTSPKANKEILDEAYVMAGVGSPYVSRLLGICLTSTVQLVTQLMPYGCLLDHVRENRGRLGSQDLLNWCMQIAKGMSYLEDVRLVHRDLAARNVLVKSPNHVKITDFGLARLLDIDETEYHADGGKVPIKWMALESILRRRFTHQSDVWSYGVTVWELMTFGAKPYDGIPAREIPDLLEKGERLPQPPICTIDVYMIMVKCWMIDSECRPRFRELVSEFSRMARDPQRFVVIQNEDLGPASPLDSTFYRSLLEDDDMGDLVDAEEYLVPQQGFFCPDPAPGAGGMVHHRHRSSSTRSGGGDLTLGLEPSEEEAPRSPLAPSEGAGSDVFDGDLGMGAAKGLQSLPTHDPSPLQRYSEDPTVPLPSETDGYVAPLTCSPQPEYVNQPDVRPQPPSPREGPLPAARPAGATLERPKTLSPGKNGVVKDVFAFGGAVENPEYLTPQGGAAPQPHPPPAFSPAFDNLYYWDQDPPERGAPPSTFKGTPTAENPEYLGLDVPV
Protocol: (§1) The SPRi apparatus described in the following examples was Plexera Kx5V2, Plexera Bioscience LLC, USA; and phosphate buffer saline (PBS), phosphoric acid, and proteinase K were prepared according to the product instruction manual.
Unless otherwise indicated, “Her2 protein” herein refers to the full-length Her2 protein.
The specific steps for testing the binding ability of the peptoid compound of Preparation Example 1 or the peptoid Derivative of Preparation Example 2 to the Her2 protein by surface plasmon resonance imaging techniques are shown as follows:
(1) dissolving the peptoid compound of Preparation Example 1 or the peptoid derivative of Preparation Example 2 into ddH2O at a concentration of 1 to 1000 μM to prepare a peptoid compound molecular probe sample to be spotted at a gradient concentration of 1-1000 μM;
(2) spotting the above peptoid compound molecular probe sample on a surface of a 3D chip (PlexArray HT, Plexera Bioscience, USA), in which each sample is repeated for 3 points, incubated at 4° C. for 12 hours, and washed by 10×PBS, 1×PBS and ultrapure water in sequence. The chip was then blocked with 1 M of aminoethanol hydrochloride for 30 minutes, then washed 5 times with ultrapure water, and finally dried with clean nitrogen; […]

[2] = target: T2, Her2 protein in the serum (Homo sapiens, UniProt P04626); test: Detection of serum signals of breast cancer patients and normal persons by SPRi with the peptoid probe chip; format: binding; settings: serum diluted 1:5000; probe concentrations 80 μM, 400 μM, 2 mM, 10 mM, 50 mM; FIG. 3
T2 construct: introducing the serum of the patient with breast cancer and the normal person (diluted 1:5000 in volume); from tissue; host or cells: human serum (breast cancer patients with high Her2 expression, and normal persons)
T2 sequence (P04626 23-647 limits assumed): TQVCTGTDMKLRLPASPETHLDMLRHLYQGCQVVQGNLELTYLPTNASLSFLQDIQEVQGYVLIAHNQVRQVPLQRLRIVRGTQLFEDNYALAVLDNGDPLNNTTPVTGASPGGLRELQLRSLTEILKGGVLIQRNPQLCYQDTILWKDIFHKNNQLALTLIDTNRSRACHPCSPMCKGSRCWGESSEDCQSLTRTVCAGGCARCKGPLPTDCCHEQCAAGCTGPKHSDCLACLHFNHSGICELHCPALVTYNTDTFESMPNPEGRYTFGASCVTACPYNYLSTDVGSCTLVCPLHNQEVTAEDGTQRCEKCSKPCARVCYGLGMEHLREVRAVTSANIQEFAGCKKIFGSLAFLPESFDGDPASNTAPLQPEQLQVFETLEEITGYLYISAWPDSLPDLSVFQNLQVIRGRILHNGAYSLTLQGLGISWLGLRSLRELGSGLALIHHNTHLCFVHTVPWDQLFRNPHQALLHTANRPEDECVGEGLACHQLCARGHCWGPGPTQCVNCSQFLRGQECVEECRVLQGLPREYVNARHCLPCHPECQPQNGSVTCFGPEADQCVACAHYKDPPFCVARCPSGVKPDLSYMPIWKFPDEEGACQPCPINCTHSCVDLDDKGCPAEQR
Protocol: as §1
Unless otherwise indicated, “patients with breast cancer” herein refers to patients with breast cancer having a high Her2 expression.
The specific steps for testing the detection of the peptoid compound of Preparation Example 1 or the peptoid Derivative of Preparation Example 2 for the blood of the patients with breast cancer by surface plasmon resonance imaging techniques are shown as follows:
(1) in the same manner as in Experimental Example 1, preparing the same 3D chip as in Experimental Example 1, mounting the chip on the SPRi instrument, measuring SPRi angle and adjusting it to the optimal optical position, in which relevant detection points including sample points and blank points are selected in the detection area, and the experimental flow rate is set to 2 μL/s; […]

Kd ([1]; probe spotted on 3D chip, Her2 at 2.632, 1.316, 0.658, 0.329 μM, fitted with BIAevalution 4.1, read-out: equilibrium dissociation constant KD): 61.8 nM
Kd ([1]; read-out: equilibrium dissociation constant KD in the binding kinetic constant with Her2 (order of magnitude)): ~10 nM
Compound: CC(C)CN(CC(=O)N(CCCCN)CC(=O)N(CC(=O)N(CCCCN)CC(=O)N(CCCCN)CC(=O)N(CCN)CC(=O)N(CCc1ccc(-c2ccccc2)cc1)CC(N)=O)Cc1ccc2c(c1)OCO2)C(=O)CN(C(=O)CNCCCCN)C(C)c1ccccc1 (stereo not drawn) [Preparation Example 1] (H-[Nlys][X1][Nleu][Nlys][Gly(N-piperonyl)][Nlys][Nlys][Gly(N-2-aminoethyl)][X2]-NH2)
distinction of serum samples of breast cancer patients from normal persons (ΔAU signal) [2]: clearly distinguish the serum samples of the patients with breast cancer
